molecular target: recombinant full-length human hydroxyacid oxidase 1 (HAO1), the equivalents of hGOX (Homo sapiens (Human), UniProt Q9UJM8); experiment: In-vitro human glycolate oxidase (hGOX) assay (Amplex red fluorescence); type: biochemical; details: 6 nM recombinant human GO, 85 μM glycolate, 10 min preincubation
Protocol: The in-vitro glycolate oxidase assay was performed using recombinant full-length human hydroxyacid oxidase 1 (HAO1), the equivalents of hGOX. […] Purified HAO1 was dissolved in assay buffer consisting of 10 mM NaCl, 110 mM KCl, 2 mM MgCl2, 50 mM HEPES (pH 7.4), and 0.01% Triton™ X-100.
The plates were incubated for 10 min at room temperature, at which point Amplex red reagent (50 μM) was added.
The fluorescence intensity signal was measured on a VariosKan LUX instrument using an excitation of 560 nm and an emission of 590 nm. The IC50 values were calculated using Graphpad Prism. The fluorescence signal of wells containing only DMSO was defined as 100% GO activity, while the fluorescence signal without the glycolate substrate was defined as 0% GO activity.

Sequence of recombinant full-length human hydroxyacid oxidase 1 (HAO1), the equivalents of hGOX (Q9UJM8 whole entry): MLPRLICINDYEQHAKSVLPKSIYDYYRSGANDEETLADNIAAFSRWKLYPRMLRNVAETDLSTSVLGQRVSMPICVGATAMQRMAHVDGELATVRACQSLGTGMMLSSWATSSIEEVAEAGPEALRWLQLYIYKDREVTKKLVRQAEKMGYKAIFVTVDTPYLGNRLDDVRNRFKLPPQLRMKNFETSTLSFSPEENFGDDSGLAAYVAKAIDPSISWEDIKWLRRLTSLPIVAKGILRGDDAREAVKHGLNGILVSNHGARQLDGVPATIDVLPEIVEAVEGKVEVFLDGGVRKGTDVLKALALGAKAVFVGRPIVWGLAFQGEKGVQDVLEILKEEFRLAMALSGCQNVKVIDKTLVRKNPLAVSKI

Row | Compound | IC50 [nM]
1 | O=C(O)c1nn[nH]c1Sc1ccc(C#CCC2CC2)cc1 [Example 355, 5-(4-(3-Cyclopropylprop-1-ynyl)phenylthio)-1H-1,2,3-triazole-4-carboxylic Acid] | 6
2 | O=C(O)c1nn[nH]c1Nc1ccc(C#CCC2CC2)cc1 [Example 362, 5-(4-(3-Cyclopropylprop-1-ynyl)phenylamino)-1H-1,2,3-triazole-4-carboxylic Acid] | 230
3 | O=C(O)c1nn[nH]c1Oc1ccc(C#Cc2ccncc2)cc1 [Example 310, 5-(4-(2-(Pyridin-4-yl)ethynyl)phenoxy)-1H-1,2,3-triazole-4-carboxylic Acid] | 4
4 | O=C(O)c1nn[nH]c1Oc1cccc(C#CCc2ccccc2)c1 [Example 349, 5-(3-(3-Phenylprop-1-ynyl)phenoxy)-1H-1,2,3-triazole-4-carboxylic Acid] | 5
5 | O=C(O)c1nn[nH]c1Oc1cccc(C#CCC2CC(F)(F)C2)c1 [Example 367, 5-(3-(3-(3,3-Difluorocyclobutyl)prop-1-ynyl)phenoxy)-1H-1,2,3-triazole-4-carboxylic Acid] | 9
6 | O=C(O)c1nn[nH]c1Oc1cccc(C#CC2CCCCC2)c1 [Example 37, 5-(3-(2-Cyclohexylethynyl)phenoxy)-1H-1,2,3-triazole-4-carboxylic Acid] | 8
7 | CC(C)C#Cc1ccc(Oc2[nH]nnc2C(=O)O)cc1 [Example 9, 5-(4-(3-Methylbut-1-ynyl)phenoxy)-1H-1,2,3-triazole-4-carboxylic Acid] | 62
8 | O=C(O)c1nn[nH]c1Oc1ccc(C#Cc2cnccn2)cc1 [Example 337, 5-(4-(2-(Pyrazin-2-yl)ethynyl)phenoxy)-1H-1,2,3-triazole-4-carboxylic Acid] | 7
9 | O=C(O)c1nn[nH]c1Oc1ccc(C#Cc2cn[nH]c2)cc1 [Example 178, 5-(4-(2-(1H-Pyrazol-4-yl)ethynyl)phenoxy)-1H-1,2,3-triazole-4-carboxylic Acid] | 6
10 | COc1ccc(Oc2[nH]nnc2C(=O)O)cc1C#Cc1ccccc1 [Example 264, 5-(4-Methoxy-3-(2-phenylethynyl)phenoxy)-1H-1,2,3-triazole-4-carboxylic Acid] | 20
11 | CS(=O)(=O)c1ccc(C#Cc2cc(F)cc(Oc3[nH]nnc3C(=O)O)c2)cc1 [Example 274, 5-(3-Fluoro-5-(2-(4-(methylsulfonyl)phenyl)ethynyl)phenoxy)-1H-1,2,3-triazole-4-carboxylic Acid] | 5
12 | Cc1cc(C#Cc2ccc(Oc3[nH]nnc3C(=O)O)cc2)ccn1 [Example 298, 5-(4-(2-(2-Methylpyridin-4-yl)ethynyl)phenoxy)-1H-1,2,3-triazole-4-carboxylic Acid] | 3
13 | O=C(O)c1nn[nH]c1Oc1cc(F)cc(C#Cc2ccccc2)c1 [Example 258, 5-(3-Fluoro-5-(2-phenylethynyl)phenoxy)-1H-1,2,3-triazole-4-carboxylic Acid] | 2
14 | O=C(O)c1nn[nH]c1Oc1ccc(C#CC2CCOCC2)cc1 [Example 40, 5-(4-(2-(Tetrahydro-2H-pyran-4-yl)ethynyl)phenoxy)-1H-1,2,3-triazole-4-carboxylic Acid] | 40
15 | CCOC(=O)c1nn[nH]c1S(=O)(=O)c1cccc(C#CCC(C)C)c1 [Example 375, Ethyl 5-(3-(4-methylpent-1-ynyl)phenylsulfonyl)-1H-1,2,3-triazole-4-carboxylate] | > 1000
16 | Cn1cc(C#Cc2ccc(Oc3[nH]nnc3C(=O)O)cc2)cn1 [Example 220, 5-(4-(2-(1-Methyl-1H-pyrazol-4-yl)ethynyl)phenoxy)-1H-1,2,3-triazole-4-carboxylic Acid] | 4
17 | O=C1CCC(C#Cc2cccc(Oc3[nH]nnc3C(=O)O)c2)CC1 [Example 352, 5-(3-((4-Oxocyclohexyl)ethynyl)phenoxy)-1H-1,2,3-triazole-4-carboxylic Acid] | 34
18 | Cc1ccc(Oc2[nH]nnc2C(=O)O)cc1C#Cc1ccccc1 [Example 262, 5-(4-Methyl-3-(2-phenylethynyl)phenoxy)-1H-1,2,3-triazole-4-carboxylic Acid] | 1
19 | O=C(O)c1nn[nH]c1Oc1ccc(C#Cc2ccccc2)cc1 [Example 138, 5-(4-(2-Phenylethynyl)phenoxy)-1H-1,2,3-triazole-4-carboxylic Acid] | 7
20 | O=C(O)c1nn[nH]c1Oc1ccc(C#Cc2ccccc2)cc1F [Example 260, 5-(2-Fluoro-4-(2-phenylethynyl)phenoxy)-1H-1,2,3-triazole-4-carboxylic Acid] | 5
21 | COc1cc(C#Cc2cccc(Oc3[nH]nnc3C(=O)O)c2)ccn1 [Example 285, 5-(3-(2-(2-Methoxypyridin-4-yl)ethynyl)phenoxy)-1H-1,2,3-triazole-4-carboxylic Acid] | 3

Row | Compound | IC50 [nM]
22 | COc1cc(C#Cc2ccc(Oc3[nH]nnc3C(=O)O)cc2)ccn1 [Example 283, 5-(4-(2-(2-Methoxypyridin-4-yl)ethynyl)phenoxy)-1H-1,2,3-triazole-4-carboxylic Acid] | 3
23 | Cc1cc(C#Cc2cccc(Oc3[nH]nnc3C(=O)O)c2)ccn1 [Example 296, 5-(3-(2-(2-Methylpyridin-4-yl)ethynyl)phenoxy)-1H-1,2,3-triazole-4-carboxylic Acid] | 1
24 | O=C(O)c1nn[nH]c1Oc1ccc(C#Cc2ccc3cn[nH]c3c2)cc1 [Example 329, 5-(4-(2-(1H-Indazol-6-yl)ethynyl)phenoxy)-1H-1,2,3-triazole-4-carboxylic Acid] | 2
25 | O=C(O)c1nn[nH]c1Oc1cccc(C#Cc2cnccn2)c1 [Example 338, 5-(3-(2-(Pyrazin-2-yl)ethynyl)phenoxy)-1H-1,2,3-triazole-4-carboxylic Acid] | 4
26 | Cn1ncc2ccc(C#Cc3ccc(Oc4[nH]nnc4C(=O)O)cc3)cc21 [Example 318, 5-(4-(2-(1-Methyl-1H-indazol-6-yl)ethynyl)phenoxy)-1H-1,2,3-triazole-4-carboxylic Acid] | 2
27 | Cc1cccc(C#Cc2cccc(Oc3[nH]nnc3C(=O)O)c2)n1 [Example 294, 5-(3-(2-(6-Methylpyridin-2-yl)ethynyl)phenoxy)-1H-1,2,3-triazole-4-carboxylic Acid] | 3
28 | Cn1cc(C#Cc2cccc(Oc3[nH]nnc3C(=O)O)c2)ccc1=O [Example 209, 4-(3-((1-Methyl-6-oxo-1,6-dihydropyridin-3-yl)ethynyl)phenoxy)-1H-1,2,3-triazole-5-carboxylic Acid] | 8
29 | COc1cccc(C#Cc2ccc(Oc3[nH]nnc3C(=O)O)cc2)c1 [Example 281, 5-(4-(2-(3-Methoxyphenyl)ethynyl)phenoxy)-1H-1,2,3-triazole-4-carboxylic Acid] | 3
30 | CCOC(=O)c1c(Oc2ccc(C#CCC3CC3)cc2)n[nH]c1C [Example 360, Ethyl 3-(4-(3-cyclopropylprop-1-ynyl)phenoxy)-5-methyl-1H-pyrazole-4-carboxylate] | > 1000
31 | Cc1ccc(C#Cc2ccc(Oc3[nH]nnc3C(=O)O)cc2)cn1 [Example 297, 5-(4-(2-(6-Methylpyridin-3-yl)ethynyl)phenoxy)-1H-1,2,3-triazole-4-carboxylic Acid] | 3
32 | O=C(O)c1nn[nH]c1Cc1ccc(C#CCC2CC2)cc1 [Example 364, 5-(4-(3-Cyclopropylprop-1-ynyl)benzyl)-1H-1,2,3-triazole-4-carboxylic Acid] | 94
33 | O=C(O)c1nn[nH]c1Oc1ccc(C#Cc2ccc(F)cc2)cc1 [Example 288, 5-(4-(2-(4-Fluorophenyl)ethynyl)phenoxy)-1H-1,2,3-triazole-4-carboxylic Acid] | 1
34 | CCOC(=O)c1nn[nH]c1Oc1cccc(C#CCC(C)C)c1 [Example 366, Ethyl 5-(3-(4-methylpent-1-ynyl)phenoxy)-1H-1,2,3-triazole-4-carboxylate] | > 1000
35 | O=C(O)c1nn[nH]c1Oc1cccc(C#Cc2ncc[nH]2)c1 [Example 332, 5-(3-(2-(1H-Imidazol-2-yl)ethynyl)phenoxy)-1H-1,2,3-triazole-4-carboxylic Acid] | 7
36 | O=C(O)c1nn[nH]c1Oc1ccc(C#Cc2ccccc2)c(F)c1 [Example 146, 5-(3-Fluoro-4-(2-phenylethynyl)phenoxy)-1H-1,2,3-triazole-4-carboxylic Acid] | 1
37 | O=C(O)c1nn[nH]c1Oc1ccc(C#Cc2ccccn2)cc1 [Example 308, 5-(4-(2-(Pyridin-2-yl)ethynyl)phenoxy)-1H-1,2,3-triazole-4-carboxylic Acid] | 10
38 | Cn1ccnc1C#Cc1ccc(Oc2[nH]nnc2C(=O)O)cc1 [Example 333, 5-(4-(2-(1-Methyl-1H-imidazol-2-yl)ethynyl)phenoxy)-1H-1,2,3-triazole-4-carboxylic Acid] | 10
39 | O=C(O)c1nn[nH]c1Oc1ccc(C#Cc2cccnn2)cc1 [Example 339, 5-(4-(2-(Pyridazin-3-yl)ethynyl)phenoxy)-1H-1,2,3-triazole-4-carboxylic Acid] | 4
40 | Cn1cc(C#Cc2ccc(Oc3[nH]nnc3C(=O)O)cc2)ccc1=O [Example 208, 4-(4-((1-Methyl-6-oxo-1,6-dihydropyridin-3-yl)ethynyl)phenoxy)-1H-1,2,3-triazole-5-carboxylic Acid] | 2
41 | CS(=O)(=O)c1ccc(C#Cc2cc(Oc3[nH]nnc3C(=O)O)ccc2F)cc1 [Example 266, 5-(4-Fluoro-3-(2-(4-(methylsulfonyl)phenyl)ethynyl)phenoxy)-1H-1,2,3-triazole-4-carboxylic Acid] | 2
42 | Cc1[nH]nc(Oc2cccc(C#CCC3CC3)c2)c1C(=O)O [Example 359, 3-(3-(3-Cyclopropylprop-1-ynyl)phenoxy)-5-methyl-1H-pyrazole-4-carboxylic Acid] | > 1000

— US11504367B2, “Compounds and methods for treating oxalate-related diseases” (OxaluRx, Inc., priority 2019, dated 2022)
